Test results as given in patent US8450308B2 (Vitae Pharmaceuticals, Inc., priority 2008, dated 2013).

Assay: BACE cell assay: soluble Amyloid Beta 1-40 (Aβ 1-40) in culture media of H4-APPsw cells
Type: cell-based
Conditions: in vitro cell activity, H4-APPsw cells, secreted Aβ 1-40, overnight treatment; read-out: IC50
Method: H4 neuroglioma cell line that stably expresses Amyloid Precursor Protein (APP) containing the KM-NL Swedish mutation (H4-APPsw) was generated. For the assay, cells are treated overnight in the presence of inhibitor and the culture media are subjected to ELISA analysis of soluble Amyloid Beta 1-40 (Aβ 1-40).
H4 neuroglioma cell line was cultured in DMEM with 10% FBS and 1% penicillin/streptomycin (Culture Medium) at 37° C., 5% CO2. […] 24 hrs after transfection, the cells were replaced into three new plates (150 mm) in fresh Culture Medium with 250 ug/ml Zeocin. […] The levels of APPsw expression were analyzed by immunoblotting and the production of Aβ 1-40 was detected by ELISA of culture supernatants. The selected clones are maintained in Culture Medium with 250 μg/ml Zeocin and routinely split in 3-4 days to maintain 20-80% confluence.
Split cells. Split H4-APPsw cells in Culture Medium and culture overnight such that cells will be ˜80% confluent next morning.
Create Compound Dilution Plate. After determining the desired final concentration of compound to be tested, create a 500× dilution plate. Add DMSO, but not inhibitor, to each well of Column 1. […] Add compounds of interest at 500× desired final concentration to wells A3-A10. Add DMSO, but not inhibitor, to each well of Columns 11 and 12. Dilute contents of Row A 1:3 in Row B. then continue through Rows C—H.
Create Media Plate. To create a 2× solution of compound in media, add 996 μL Culture Medium to each well of a 96-well 2 ml deep well plate (Media Plate) in biosafety hood. Add 4 μL 5 mM control compound to Media Plate wells A1-D1 for determination of full inhibition.
Add media to Cell Plate. With a multichannel pipettor, mix each well of Media Plate several times to insure homogeneity. Add 100 μL of mixture to Black polymer bottom P-D-L plates. Next, place Medium Plate and Cell Plate in the incubator.
Add cells to Cell Plate. Trypsinize and count H4-APPsw cells. Dilute cells 6×10^5 cells/ml in Culture Medium and remove Cell Plate from incubator. Vortex cells to homogeneity, then using a multichannel repeating pipettor, add 100 μL cell suspension to Cell Plate, adding cells from Row H to Row A. Place Cell Plate in incubator.
Change media in Cell Plate. After 5 h, check Cell Plate by microscope to insure cells are attached. In culture hood, remove media from Cell Plate using multichannel repeating pipettor. Add 100 μl Culture Medium to each well. Remove Media Plate from incubator and mix with pipettor as previous. Add 100 μl from each well of Media Plate to corresponding well in Cell Plate. Place Cell Plate in incubator overnight.
Perform ELISA to determine levels of secreted Aβ 1-40. After 16 h incubation, spin Cell Plate for 8 min at 1200 rpm. The primary reading of Aβ 1-40 levels is done using PerkinElmer AlphaLISA technology. Follow the manufacturer's protocol for performing AlphaLISA in a white ½ area Optiwell plate using Row 12 for peptide standard (1:2 dilutions, starting at 15 ng/ml). Data are acquired using PerkinElmer Fusion-Alpha FP-HT, Alpha protocol (Count Time 0.6 s, Count Time Ratio 30%:70%).
Export data from Fusion using Columnar Report format into a separate file for each plate. Upload data into Activity Base using RIA-DOSE-RESPONSE protocol (Version 1). Data from at least eight doses were fitted to a four parameter logistical model using XLfit software to determine potency.

`CN1O[C@@]2(C[C@@H](C3CCCc4ccccc43)Oc3ccc(-c4ccc(F)c(C#N)c4)cc32)N=C1N` (stereo partly drawn) [Compound 201] and `CN1O[C@@]2(C[C@H](C3CCCc4ccccc43)Oc3ccc(-c4ccc(F)c(Cl)c4)cc32)N=C1N` (stereo partly drawn) [Compound 252] fall in the same range of IC50: 1000 to 5000 nM for the first, 1000 to 5000 nM for the second.

`COc1cc(Cl)cc(-c2ccc3c(c2)C2(CC4(CCCc5ccccc5C4)O3)N=C(N)N(C)O2)c1` (stereo not drawn) [Compound 234] and `CN1OC2(CC3(CCCc4ccccc4C3)Oc3ccc(-c4cc(F)cc(Cl)c4)cc32)N=C1N` (stereo not drawn) [Compound 227] fall in the same range of IC50: 1000 to 5000 nM for the first, 1000 to 5000 nM for the second.

First: CN1C(=O)C2(CC(C3CCOC(C)(C)C3)Oc3ccc(-c4cccc(C(F)(F)F)c4)cc32)N=C1N (stereo not drawn) [Compound 200]
Second: CN1C(=O)C2(C[C@H](C3CCOC(C)(C)C3)Oc3ccc(-c4cccc(F)c4)cc32)N=C1N (stereo partly drawn) [Compound 241]
The IC50 of the first is lower: 1 to 100 nM for the first, 100 to 500 nM for the second. The first is the more potent here.

`CN1C(=O)C2(CC(C3CCOC(C)(C)C3)Oc3ccc(-c4cccc(C#N)c4F)cc32)N=C1N` (stereo not drawn) [Compound 212] and `CN1C(=O)C2(CC(C3CCOC(C)(C)C3)Oc3ccc(-c4cc(C#N)ccc4F)cc32)N=C1N` (stereo not drawn) [Compound 218] fall in the same range of IC50: 1 to 100 nM for the first, 1 to 100 nM for the second.

`CC1CC[C@@]2(CO1)C[C@]1(N=C(N)N(C)O1)c1cc(-c3cc(F)cc(Cl)c3)ccc1O2` (stereo partly drawn) [Compound 232] and `CC1CC[C@@]2(CO1)C[C@]1(N=C(N)N(C)O1)c1cc(-c3cccc(Cl)c3)ccc1O2` (stereo partly drawn) [Compound 236] fall in the same range of IC50: 500 to 1000 nM for the first, 500 to 1000 nM for the second.

`CN1O[C@@]2(C[C@]3(CCCc4ccccc4C3)Oc3ccc(-c4cccc(C#N)c4)cc32)N=C1N` [Compound 205] and `CN1OC2(C[C@@]3(CCCc4ccccc4C3)Oc3ccc(-c4cccc(C#N)c4)cc32)N=C1N` (stereo partly drawn) [Compound 251] fall in the same range of IC50: 100 to 500 nM for the first, 100 to 500 nM for the second.

First: COc1cc(C#N)cc(-c2ccc3c(c2)C2(CC4(CCCOC4)O3)N=C(N)N(C)C2=O)c1 (stereo not drawn) [Compound 223]
Second: CN1C(=O)[C@@]2(C[C@]3(CCCOC3)Oc3ccc(-c4cc(C#N)cc(C#N)c4)cc32)N=C1N [Compound 255]
The IC50 of the first is lower: 1 to 100 nM for the first, 100 to 500 nM for the second. The first is the more potent here.

First: CN1C(=O)[C@@]2(C[C@]3(CCCOC3)Oc3ccc(-c4cccc(C(F)(F)F)c4)cc32)N=C1N [Compound 243]
Second: CN1C(=O)[C@@]2(C[C@]3(CCCOC3)Oc3ccc(-c4cc(C#N)cc(C(F)(F)F)c4)cc32)N=C1N [Compound 216]
The IC50 of the first is higher: 100 to 500 nM for the first, 1 to 100 nM for the second. The second is the more potent here.

First: CN1OC2(CC(C3CCCc4ccccc43)Oc3ccc(-c4cc(Cl)cc(C#N)c4)cc32)N=C1N (stereo not drawn) [Compound 208]
Second: CN1C(=O)C2(C[C@H](C3CCCc4ccccc43)Oc3ccc(-c4cccc(C#N)c4)cc32)N=C1N (stereo in doubt) [Compound 188, 3-(2′-amino-1′-methyl-5′-oxo-2-(1,2,3,4-tetrahydronaphthalen-1-yl)-1′,5′-dihydrospiro[chroman-4,4′-imidazole]-6-yl)benzonitrile]
The IC50 of the first is higher: 1000 to 5000 nM for the first, 100 to 500 nM for the second.

First: CN1C(=O)C2(CC(C3CCOC(C)(C)C3)Oc3ccc(-c4cccc(Cl)c4)cc32)N=C1N (stereo not drawn) [Compound 197]
Second: CN1OC2(CC(C3CCOC(C)(C)C3)Oc3ccc(-c4cccc(Cl)c4)cc32)N=C1N (stereo not drawn) [Compound 264]
The IC50 of the first is lower: 1 to 100 nM for the first, 1000 to 5000 nM for the second. The first is the more potent here.

First: CN1OC2(CC3(CCCc4ccccc4C3)Oc3ccc(-c4ccc(F)c(C#N)c4)cc32)N=C1N (stereo not drawn) [Compound 199]
Second: COc1cccc2c1CCCC1(C2)CC2(N=C(N)N(C)O2)c2cc(-c3cccc(C#N)c3)ccc2O1 (stereo not drawn) [Compound 225]
The IC50 of the first is lower: 100 to 500 nM for the first, 500 to 1000 nM for the second. The first is the more potent here.

First: Cc1cc(Br)cc(-c2ccc3c(c2)C2(CC4(CCCOC4)O3)N=C(N)N(C)C2=O)c1F (stereo not drawn) [Compound 253]
Second: CN1C(=O)[C@@]2(C[C@]3(CCCOC3)Oc3ccc(-c4cc(F)cc(Cl)c4)cc32)N=C1N [Compound 215]
The IC50 of the first is higher: 500 to 1000 nM for the first, 100 to 500 nM for the second. The second is the more potent here.

Compared with `CN1OC2(CC(C3CCOC(C)(C)C3)Oc3ccc(-c4cc(C#N)cc(C#N)c4)cc32)N=C1N` (stereo not drawn) [Compound 248], `Cc1ccc(C#N)cc1-c1ccc2c(c1)[C@]1(C[C@H](C3CCOC(C)(C)C3)O2)N=C(N)N(C)C1=O` (stereo partly drawn) [Compound 222] is lower in IC50: 100 to 500 nM for the first, 1 to 100 nM for the second.

`CN1C(=O)C2(CC(C3CCOC(C)(C)C3)Oc3ccc(-c4cc(F)cc(F)c4F)cc32)N=C1N` (stereo not drawn) [Compound 229] gave an IC50 of 100 to 500 nM.
